Laboratory results as given in patent US11136345B2, “Large scale preparation of pseudo-trisaccharide aminoglycosides and of intermediates thereof” (Eloxx Pharmaceuticals Ltd., priority 2017, dated 2021).

Tested on: Rett Syndrome mutation R270X
Experiment: Read-through activity in cell-free assay (firefly/renilla luciferase reporter, in vitro transcription/translation)
Type: biochemical, rabbit
Conditions: cell-free dose-response, concentration range 0-12 μM; firefly/renilla expression ratio normalized to WT and non-treated control (FIGS. 6A-B)
Experimental: The plasmids were transcribed in vitro and translated using rabbit reticulocytes (TNT mix) and then tested for the expression levels of the firefly and renilla luciferases. WT plasmids expressed both firefly and renilla luciferases while mutant plasmids expressed only the renilla luciferase due to the stop codon found in the inserted sequence. The read-through assays were conducted for the tested compounds and the controls by adding the compounds to the in vitro transcription/translation reaction mixture. In case the compounds exerted suppression of the premature nonsense/stop codon mutation, the firefly luciferase was expressed and a fold-change in its expression was observed.
Read-through activity of Rett Syndrome mutation R270X was tested using ELX-02 that was manufactured in Example 1 and 2, and the mutation suppression was calculated based on firefly/renilla expression ratio values, and normalized with respect to the expression level of the WT and the control sample (no tested compound).
FIGS. 6A-B present the results of Rett Syndrome mutation R270X nonsense mutation suppression dose-response cell-free assays conducted for ELX-02 according to embodiments of the present invention, at a concentration rage of 0-12 μM.

C[C@H](N)[C@H]1O[C@@H](OC2C(O)[C@H](N)CC(N)[C@H]2O[C@H]2OC([C@@H](C)O)[C@@H](O)C(O)C2N)C(O)C1O (stereo partly shown) [ELX-02]
read-through of the Rett Syndrome mutation, R270X: dose-dependent increase
